In patent US12077503B2, “Substituted cyclic amides and their use as herbicides” (FMC CORPORATION, priority 2015, dated 2024):

Experiments:
Format in all cases: in vivo
[1] = tested on: Kochia (Kochia scoparia); test: Test A preemergence
From the text: (§1) Seeds of plant species selected from barnyardgrass (Echinochloa crus-galli), Kochia (Kochia scoparia), ragweed (common ragweed, Ambrosia elatior), ryegrass, Italian (Italian ryegrass, Lolium multiflorum), crabgrass, large (Digitaria sanguinalis), giant foxtail (Setaria faberii), green foxtail (Setaria viridis), morningglory (Ipomoea spp.), pigweed (Amaranthus retroflexus), velvetleaf (Abutilon theophrasti), wheat (Triticum aestivum), and corn (Zea mays) were planted into a blend of loam soil and sand and treated preemergence with a directed soil spray using test chemicals formulated in anon-phytotoxic solvent mixture which included a surfactant.
(§2) At the same time, plants selected from these crop and weed species and also blackgrass (Alopecurus myosuroides), and Galium (catchweed bedstraw, Galium aparine) were planted in pots containing the same blend of loam soil and sand and treated with postemergence applications of test chemicals formulated in the same manner. Plants ranged in height from 2 to 10 cm and were in the one- to two-leaf stage for the postemergence treatment. Treated plants and untreated controls were maintained in a greenhouse for approximately 10 d, after which time all treated plants were compared to untreated controls and visually evaluated for injury. Plant response ratings, summarized in Table A, are based on a 0 to 100 scale where 0 is no effect and 100 is complete control. A dash (-) response means no test result.

[2] = tested on: barnyardgrass (Echinochloa crus-galli); test: Test A preemergence
From the text: as §1, §2

[3] = tested on: giant foxtail (Setaria faberii); test: Test A preemergence
From the text: as §1, §2

[4] = tested on: pigweed (Amaranthus retroflexus); test: Test A preemergence
From the text: as §1, §2

[5] = tested on: ragweed (common ragweed, Ambrosia elatior); test: Test A preemergence
From the text: as §1, §2

[6] = tested on: ryegrass, Italian (Italian ryegrass, Lolium multiflorum); test: Test A preemergence
From the text: as §1, §2

[7] = tested on: Galium (catchweed bedstraw, Galium aparine); test: Test A postemergence
From the text: as §1, §2

[8] = tested on: Kochia (Kochia scoparia); test: Test A postemergence
From the text: as §1, §2

[9] = tested on: barnyardgrass (Echinochloa crus-galli); test: Test A postemergence
From the text: as §1, §2

[10] = tested on: blackgrass (Alopecurus myosuroides); test: Test A postemergence
From the text: as §1, §2

[11] = tested on: corn (Zea mays); test: Test A postemergence
From the text: as §1, §2

[12] = tested on: giant foxtail (Setaria faberii); test: Test A postemergence
From the text: as §1, §2

[13] = tested on: pigweed (Amaranthus retroflexus); test: Test A postemergence
From the text: as §1, §2

[14] = tested on: ragweed (common ragweed, Ambrosia elatior); test: Test A postemergence
From the text: as §1, §2

[15] = tested on: ryegrass, Italian (Italian ryegrass, Lolium multiflorum); test: Test A postemergence
From the text: as §1, §2

[16] = tested on: wheat (Triticum aestivum); test: Test A postemergence
From the text: as §1, §2

[17] = tested on: barnyardgrass (Echinochloa crus-galli); test: Test B flooded paddy test; details: Flood, 250 g ai/ha; 0 to 100 scale where 0 is no effect and 100 is complete control; 13 to 15 d
Outline: (§3)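 Compound goes directly into floodwater once pots are flooded 3 cm above soil, targeting plants at two leaves; the water depth is then held for the test duration. Plants sit 13–15 d in a greenhouse and are rated visually, 100 denoting complete control.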

[18] = tested on: ducksalad (Heteranthera limosa); test: Test B flooded paddy test; details: Flood, 250 g ai/ha; 0 to 100 scale where 0 is no effect and 100 is complete control; 13 to 15 d
Outline: as §3

[19] = tested on: rice (Oryra sativa); test: Test B flooded paddy test; details: Flood, 250 g ai/ha; 0 to 100 scale where 0 is no effect and 100 is complete control; 13 to 15 d
Outline: as §3

[20] = tested on: sedge, umbrella (small-flower umbrella sedge, Cyperus difformis); test: Test B flooded paddy test; details: Flood, 250 g ai/ha; 0 to 100 scale where 0 is no effect and 100 is complete control; 13 to 15 d
Outline: as §3

[21] = 125 g ai/ha, Preemergence, visual injury after approximately 10 d, 0 to 100 scale where 0 is no effect and 100 is complete control
[22] = Preemergence, 500 g ai/ha, visual injury approx. 10 d
[23] = 125 g ai/ha, postemergence, visual rating after approx. 10 d, 0 to 100 scale (0 no effect, 100 complete control)
[24] = Postemergence, 500 g ai/ha, 0 to 100 scale where 0 is no effect and 100 is complete control
[25] = 500 g ai/ha, preemergence, 0 to 100 scale, 0 = no effect, 100 = complete control
[26] = 125 g ai/ha, preemergence, visual rating after approx. 10 d, 0 to 100 scale where 0 is no effect and 100 is complete control
[27] = 125 g ai/ha, postemergence, visual injury after approximately 10 d, 0 to 100 scale (0 no effect, 100 complete control)
[28] = 500 g ai/ha, postemergence, visual injury, 0 to 100 scale (0 no effect, 100 complete control), approx. 10 d

O=C1NCC(c2cc(F)ccc2F)C1C(=O)Nc1cccc(F)c1F (racemic) [Compound 546]
90: Barnyardgrass plant response rating (0 to 100 scale, 0 is no effect, 100 is complete control) [2, 22] | Plant response rating, Foxtail, Giant [3, 21] | Foxtail, Giant plant response rating (0 to 100 scale, 0 is no effect, 100 is complete control) [3, 22] | Plant response rating, Barnyardgrass [9, 24] | Plant response rating, Foxtail, Giant [12, 24]
70: Plant response rating, Foxtail, Giant [12, 23] | Plant response rating, Barnyardgrass [17]
0: Plant response rating, Kochia [1, 21] | Kochia plant response rating (0 to 100 scale, 0 is no effect, 100 is complete control) [1, 22] | Plant response rating, Pigweed [4, 21] | Pigweed plant response rating (0 to 100 scale, 0 is no effect, 100 is complete control) [4, 22] | Plant response rating, Ragweed [5, 21] | Ragweed plant response rating (0 to 100 scale, 0 is no effect, 100 is complete control) [5, 22] | Plant response rating, Ryegrass, Italian [6, 21] | Ryegrass, Italian plant response rating (0 to 100 scale, 0 is no effect, 100 is complete control) [6, 22] | Plant response rating, Galium [7, 23] | Plant response rating, Galium [7, 24] | Plant response rating, Kochia [8, 23] | Plant response rating, Kochia [8, 24] | Plant response rating, Blackgrass [10, 23] | Plant response rating, Corn [11, 23] | Plant response rating, Pigweed [13, 23] | Plant response rating, Pigweed [13, 24] | Plant response rating, Ragweed [14, 23] | Plant response rating, Ragweed [14, 24] | Plant response rating, Ryegrass, Italian [15, 23] | Plant response rating, Ryegrass, Italian [15, 24] | Plant response rating, Wheat [16, 23] | Plant response rating, Wheat [16, 24] | Plant response rating, Sedge, Umbrella [20]
20: Plant response rating, Blackgrass [10, 24] | Plant response rating, Corn [11, 24] | Plant response rating, Rice [19]
85: Plant response rating, Ducksalad [18]
80: Plant response rating, Barnyardgrass [2, 21] | Plant response rating, Barnyardgrass [9, 23]

O=C(Nc1ccccc1F)C1C(=O)N(CC2CC2)CC1c1cccc(C(F)(F)F)c1 (stereo not drawn) [Compound 682]
20: Plant response rating, Ryegrass, Italian [6, 26] | Plant response rating, Barnyardgrass [9, 28] | Plant response rating, Foxtail, Giant [12, 27] | Plant response rating, Wheat [16, 28]
0: Plant response rating, Kochia [1, 21] | Plant response rating, Kochia [1, 25] | Plant response rating, Barnyardgrass [2, 21] | Plant response rating, Barnyardgrass [2, 25] | Plant response rating, Pigweed [4, 26] | Plant response rating, Pigweed [4, 25] | Plant response rating, Ragweed [5, 26] | Plant response rating, Ragweed [5, 25] | Plant response rating, Galium [7, 27] | Plant response rating, Galium [7, 28] | Plant response rating, Kochia [8, 27] | Plant response rating, Kochia [8, 28] | Plant response rating, Barnyardgrass [9, 23] | Plant response rating, Blackgrass [10, 23] | Plant response rating, Blackgrass [10, 28] | Plant response rating, Corn [11, 27] | Plant response rating, Corn [11, 28] | Plant response rating, Pigweed [13, 27] | Plant response rating, Pigweed [13, 28] | Plant response rating, Ragweed [14, 27] | Plant response rating, Ragweed [14, 28] | Plant response rating, Ryegrass, Italian [15, 27] | Plant response rating, Ryegrass, Italian [15, 28] | Plant response rating, Wheat [16, 27] | Plant response rating, Barnyardgrass [17] | Plant response rating, Ducksalad [18] | Plant response rating, Rice [19] | Plant response rating, Sedge, Umbrella [20]
30: Plant response rating, Ryegrass, Italian [6, 25]
90: Plant response rating, Foxtail, Giant [3, 21] | Plant response rating, Foxtail, Giant [3, 25]
80: Plant response rating, Foxtail, Giant [12, 28]
